Literature values as cited in patent publication US20240033213A1, “TOPICAL PHARMACEUTICAL FORMULATION AND METHOD FOR THE TREATMENT OF SYNDROMES ASSOCIATED WITH CHRONIC PELVIC PAIN” (CURALEAF INTERNATIONAL LIMITED, priority 2020, published 2024).

Target: T1, TRPV1 receptor (Rattus norvegicus, UniProt O35433)
T1 construct: CBD Effects on TRPV1 Signaling Pathways in Cultured DRG Neurons; host or cells: cultured DRG sensory neurons (endogenous TRPV1)
Conditions: sensory neurons in an animal model, in vitro

T1 sequence (O35433 whole entry): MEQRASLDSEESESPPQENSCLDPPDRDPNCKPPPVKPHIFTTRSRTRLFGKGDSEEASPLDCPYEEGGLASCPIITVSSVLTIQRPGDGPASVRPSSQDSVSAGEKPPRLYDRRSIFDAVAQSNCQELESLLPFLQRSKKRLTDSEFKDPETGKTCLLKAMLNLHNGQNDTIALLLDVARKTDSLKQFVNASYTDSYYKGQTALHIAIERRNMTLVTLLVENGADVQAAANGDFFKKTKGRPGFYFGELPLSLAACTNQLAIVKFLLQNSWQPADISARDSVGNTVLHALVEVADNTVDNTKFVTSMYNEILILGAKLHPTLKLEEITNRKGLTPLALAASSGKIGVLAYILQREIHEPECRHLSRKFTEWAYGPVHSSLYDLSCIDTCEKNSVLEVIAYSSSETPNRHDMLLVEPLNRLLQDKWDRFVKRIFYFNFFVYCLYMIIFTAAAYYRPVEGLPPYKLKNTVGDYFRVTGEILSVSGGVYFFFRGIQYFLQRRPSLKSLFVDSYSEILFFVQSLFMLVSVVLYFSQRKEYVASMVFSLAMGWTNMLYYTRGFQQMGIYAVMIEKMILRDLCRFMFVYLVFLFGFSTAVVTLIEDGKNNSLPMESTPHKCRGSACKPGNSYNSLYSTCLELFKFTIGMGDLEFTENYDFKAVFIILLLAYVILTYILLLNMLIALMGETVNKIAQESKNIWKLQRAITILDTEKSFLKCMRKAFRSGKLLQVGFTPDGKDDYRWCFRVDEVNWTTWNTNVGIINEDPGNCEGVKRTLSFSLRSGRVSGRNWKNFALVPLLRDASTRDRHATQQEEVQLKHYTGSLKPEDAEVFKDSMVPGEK

C=C(C)[C@@H]1CCC(C)=C[C@H]1c1c(O)cc(CCCCC)cc1O [cannabidiol]
Effect on neuronal hypersensitivity following TRPV1 activation: inhibit neuronal hypersensitivity following TRPV1 activation
